According to patent US7456197B2, “Pyridinium cationic lipids as gene transfer agents” (The Texas A&M University System, priority 2003, dated 2008):

Experiment: Critical (phase transition) temperature Tc by differential scanning calorimetry
Assay type: physicochemical
Conditions: for Tc (critical temperature), Pure: pure lipid; for Tc (phase transition temperature): lipids 21 and 25, DSC, heating rate 5° C./minute
Method: General. Melting points for the diols and the phase transition temperature Tc for the cationic lipids were determined by differential scanning calorimetry (DSC), using a TA-Instruments Q100 DSC, and a heating rate of 5° C./minute. The IR spectra were recorded on a Nicolet Avatar 360 FTIR spectrophotometer in the range 650-4000 cm^−1 using a ZnSe—attenuated total reflectance (ATR) accessory. The compounds were solved in a small amount of solvent (MeOH for the diols, CHCl3 for the lipids), and the resulted solutions were left to evaporate to dryness on the surface of the ZnSe crystals of the ATR accessory. The NMR spectra were recorded at ≈303 K with a Varian Inova spectrometer equipped with a 5 mm indirect detection probe, operating at 500 MHz for ^1H-NMR and at 125 MHz for ^13C-NMR. Chemical shifts are reported as δ values, using TMS as internal standard for proton spectra and the solvent resonance for carbon spectra. Assignments were made based on signal intensity, selective decoupling, COSY (^1H-^1H) and HETCOR (^1H-^13C) sequences. Elemental analyses were performed by combustion, using a Perkin Elmer 2400 Series II CHNS analyser.
Dioleoylphosphatidylethanolamine (DOPE), cholesterol (CHOL), N-(2,3-dioleoyloxypropyl)-N,N,N-trimethylammonium chloride (DOTAP) were commercial products. The purity of the lipids was checked by thin layer chromatography and also by differential scanning calorimetry (DSC), which was also used for determining the critical temperature Tc. For the preparation of the liposomes a protocol optimized for this type of compounds was adopted as follows. The cationic lipid (with or without helper lipid) was dissolved in chloroform/methanol (2/1, v/v) to reach a final concentration of 1 mM for the charged species. From this stock solution 50 μL were aliquoted in a 1 mL tube and the solvent was evaporated in a SpeedVac evaporator, under vacuum, for 1 h. The dried lipid film was prepared by removing the traces of organic solvent in a dessicator, over Drierite®, under vacuum, overnight. The film was hydrated with 500 μL sterile phosphate buffer saline (PBS) the tube was purged with sterile N2, and vortexed for 1 minute. The liposomes were generated by sonicating the tube in a water bath sonicator for 5-30 minutes at 62° C. and at 37° C. for DOTAP. After sonication the preparations were allowed to reach room temperature.
Materials and Methods. Melting points for the diols, acetates and ketals were determined on a Boetius heating plate microscope and are uncorrected. For the cationic lipids 21 and 25 the phase transition temperature Tc was determined by differential scanning calorimetry (DSC), using a TA-Instruments Q100 DSC, and a heating rate of 5° C./minute. The IR spectra were recorded on a Nicolet Avatar 360 FTIR spectrophotometer, in the range 650-4000 cm^−1, using a ZnSe—attenuated total reflectance (ATR) accessory. The compounds were solved in a small amount of solvent (MeOH for the diols, CHCl3 for the esters), the resulted solutions being left to evaporate to dryness on the surface of the ZnSe crystals of the ATR accessory. This technique was imposed by the poor results obtained in transmission mode for some of the compounds, due to the lack of crystallization, hygroscopicity and other problems related with working with KBr pellets. The NMR spectra were recorded at ≈303 K with a Varian Gemini 300BB spectrometer operating at 300 MHz for ^1H and at 75 MHz for ^13C. Chemical shifts are reported as δ values, using TMS as internal standard for proton spectra and the solvent resonance for carbon spectra: 77.00 ppm in CDCl3, 39.50 ppm in DMSO-d6, the line from 123.50 ppm in pyridine-d5, 62.80 ppm in nitromethane-d3, 30.10 ppm in dimethylformamide-d7. Assignments were made based on signal intensity, selective decoupling and COSY (^1H-^1H) and HETCOR (^1H-^13C) sequences. Nitrogen elemental analysis was performed by combustion, mixing the samples with small amounts of quartz sand.

| Structure (SMILES) | Tc (critical temperature), Pure [°C] | Tc (critical temperature), With cholesterol (1:1 molar ratio) [°C] | Tc (phase transition temperature) [°C] |
| --- | --- | --- | --- |
| CCCCCCCCCC(=O)Oc1ccc(CC[n+]2c(C)cc(C)cc2C)cc1OC(=O)CCCCCCCCC.F[P-](F)(F)(F)(F)F [Lipid 7ACpc, 1-(3,4-didecanoyloxyphenylethyl)-2,4,6-trimethylpyridinium hexafluorophosphate] | 140.0 | 129.2 |  |
| CCCCCCCC/C=C\CCCCCCCC(=O)OCC(COC(=O)CCCCCCC/C=C\CCCCCCCC)[n+]1c(C)cc(C)cc1C.[O-][Cl+3]([O-])([O-])[O-] [Lipid 25AaO, 1-(1,3-Dioleoyloxypropane-2-yl)-2,4,6-trimethylpyridinium perchlorate] |  |  | 48 |
| CCCCCCCCCCCCCCCCCC(=O)Oc1ccc(CC[n+]2c(C)cc(C)cc2C)cc1OC(=O)CCCCCCCCCCCCCCCCC.F[P-](F)(F)(F)(F)F [Lipid 7ASte, 1-(3,4-distearoyloxyphenylethyl)-2,4,6-trimethylpyridinium hexafluorophosphate] | 138.8 | 123.9 |  |
| CCCCCCCCCCCCCCCC(=O)OCC(COC(=O)CCCCCCCCCCCCCCC)[n+]1c(-c2ccccc2)cc(-c2ccccc2)cc1-c1ccccc1.[O-][Cl+3]([O-])([O-])[O-] [Lipid 25BaP, 1-(1,3-Dipalmitoyloxypropane-2-yl)-2,4,6-triphenylpyridinium perchlorate] |  |  | 125 |
| CCCCCCCC/C=C\CCCCCCCC(=O)OCC(C[n+]1c(C)cc(C)cc1C)OC(=O)CCCCCCC/C=C\CCCCCCCC.F[B-](F)(F)F (centres unmarked) [Lipid 21AbO, 1-(2,3-Dioleoyloxypropyl)-2,4,6-trimethylpyridinium tetrafluoroborate] |  |  | 52 |
| CCCCCCCCCCCCCCCC(=O)Oc1ccc(CC[n+]2c(C)cc(C)cc2C)cc1OC(=O)CCCCCCCCCCCCCCC.F[P-](F)(F)(F)(F)F [Lipid 7APal, 1-(3,4-dipalmitoyloxyphenylethyl)-2,4,6-trimethylpyridinium hexafluorophosphate] | 140.0 | 124.1 |  |
| CCCCCCCCCCCC(=O)OCC(COC(=O)CCCCCCCCCCC)[n+]1c(C)cc(C)cc1C.F[P-](F)(F)(F)(F)F [Lipid 5ALau, 1-(1,3-dilauroyloxypropane-2-yl)-2,4,6-trimethylpyridinium hexafluorophosphate] | 58.2 | 41.9 |  |
| CCCCCCCCCCCCCCCC(=O)OCC(C[n+]1c(C)cc(C)cc1C)OC(=O)CCCCCCCCCCCCCCC.F[B-](F)(F)F (centres unmarked) [Lipid 21AbP, 1-(2,3-Dipamitoyloxypropyl)-2,4,6-trimethylpyridinium tetrafluoroborate] |  |  | 100 |
| CCCCCCCCCCCCCCCCCC(=O)OCC(C[n+]1c(C)cc(C)cc1C)OC(=O)CCCCCCCCCCCCCCCCC.F[B-](F)(F)F (centres unmarked) [Lipid 21AbS, 1-(2,3-Distearoyloxypropyl)-2,4,6-trimethylpyridinium tetrafluoroborate] |  |  | 103 |
| CCCCCCCCCCCCCCCC(=O)OCC(C[n+]1c(C)cc(C)cc1C)OC(=O)CCCCCCCCCCCCCCC.F[P-](F)(F)(F)(F)F (centres unmarked) [Lipid 3APal, 1-(2,3-dipamitoyloxypropyl)-2,4,6-trimethylpyridinium hexafluorophosphate] | 123.5 | 114.0 |  |
| CCCCCCCCCCCCCCCC(=O)OCC(C[n+]1c(C)cc(C)cc1C)OC(=O)CCCCCCCCCCCCCCC.[O-][Cl+3]([O-])([O-])[O-] (centres unmarked) [Lipid 21AaP, 1-(2,3-Dipamitoyloxypropyl)-2,4,6-trimethylpyridinium perchlorate] |  |  | 106 |
| CCCCCCCCCCCCCCCCCC(=O)OCC(C[n+]1c(C)cc(C)cc1C)OC(=O)CCCCCCCCCCCCCCCCC.F[P-](F)(F)(F)(F)F (centres unmarked) [Lipid 3ASte, 1-(2,3-distearoyloxypropyl)-2,4,6-trimethylpyridinium hexafluorophosphate] | 122.5 | 112.7 |  |
| CCCCCCCCCCCCCC(=O)Oc1ccc(CC[n+]2c(C)cc(C)cc2C)cc1OC(=O)CCCCCCCCCCCCC.F[P-](F)(F)(F)(F)F [Lipid 7AMyr, 1-(3,4-dimyristoyloxyphenylethyl)-2,4,6-trimethylpyridinium hexafluorophosphate] | 141.2 | 125.8 |  |
| CCCCCCCC/C=C\CCCCCCCC(=O)OCC(C[n+]1c(C)cc(C)cc1C)OC(=O)CCCCCCC/C=C\CCCCCCCC.[O-][Cl+3]([O-])([O-])[O-] (centres unmarked) [Lipid 21AaO, 1-(2,3-Dioleoyloxypropyl)-2,4,6-trimethylpyridinium perchlorate] |  |  | 57 |
| CCCCCCCCCCCCCCCCCC(=O)OCC(COC(=O)CCCCCCCCCCCCCCCCC)[n+]1c(C)cc(C)cc1C.F[P-](F)(F)(F)(F)F [Lipid 5ASte, 1-(1,3-distearoyloxypropane-2-yl)-2,4,6-trimethylpyridinium hexafluorophosphate] | 79.6 | 66.1 |  |
| CCCCCCCC/C=C\CCCCCCCC(=O)Oc1ccc(CC[n+]2c(C)cc(C)cc2C)cc1OC(=O)CCCCCCC/C=C\CCCCCCCC.F[P-](F)(F)(F)(F)F [Lipid 7AOle, 1-(3,4-dioleoyloxyphenylethyl)-2,4,6-trimethylpyridinium hexafluorophosphate] | 106.8 | 97.3 |  |
| CCCCCCCC(=O)Oc1ccc(CC[n+]2c(C)cc(C)cc2C)cc1OC(=O)CCCCCCC.F[P-](F)(F)(F)(F)F [Lipid 7ACpy, 1-(3,4-dioctanoyloxyphenylethyl)-2,4,6-trimethylpyridinium hexafluorophosphate] | 134.1 | 127.3 |  |
| CCCCCCCC/C=C\CCCCCCCC(=O)OCC(COC(=O)CCCCCCC/C=C\CCCCCCCC)[n+]1c(C)cc(C)cc1C.F[B-](F)(F)F [Lipid 25AbO, 1-(1,3-Dioleoyloxypropane-2-yl)-2,4,6-trimethylpyridinium tetrafluoroborate] |  |  | 43 |
| CCCCCCCCCCCCCCCCCC(=O)OCC(C[n+]1c(C)cc(C)cc1C)OC(=O)CCCCCCCCCCCCCCCCC.[O-][Cl+3]([O-])([O-])[O-] (centres unmarked) [Lipid 21AaS, 1-(2,3-Distearoyloxypropyl)-2,4,6-trimethylpyridinium perchlorate] |  |  | 110 |
| CCCCCCCCCCCCCCCC(=O)OCC(COC(=O)CCCCCCCCCCCCCCC)[n+]1c(C)cc(C)cc1C.F[P-](F)(F)(F)(F)F [Lipid 5APal, 1-(1,3-dipamitoyloxypropane-2-yl)-2,4,6-trimethylpyridinium hexafluorophosphate] | 75.5 | 61.0 |  |
| CCCCCCCCCCCCCCCCCC(=O)OCC(COC(=O)CCCCCCCCCCCCCCCCC)[n+]1c(C)cc(C)cc1C.[O-][Cl+3]([O-])([O-])[O-] [Lipid 25AaS, 1-(1,3-Distearoyloxypropane-2-yl)-2,4,6-trimethylpyridinium perchlorate] |  |  | 70 |
